Patent US10702519B2, “Use of methoxatin, derivative and/or salt thereof in Sjogren's syndrome and pharmaceutical composition” (NANJING SHUPENG LIFESCIENCE CO., LTD, priority 2016, dated 2020)
Entries after “also recorded” stand apart in the source; their conditions may differ. Marks after values point to notes of the source that are not given here.

Legend:
NOD mice = assay: Saliva flow detection (pilocarpine-stimulated) in NOD mouse model of Sjogren's syndrome; format: in vivo; conditions: for salivary flow compared with the control group: P<0.05; for SFR (salivary flow): NOD mice, PQQ 1 mg/kg/day, active vitamin D 0.1 μg/kg/day; for salivary secretion function of NOD mice: summary statement
Excerpt: Model: NOD mouse model. NOD (Non-obese Diabetes) mice are a genetically deficient animal model of spontaneous diabetes. The female mice develop diabetes from 14 weeks and the incidence can reach as high as 80% by 30 weeks. NOD mice are also an animal model of Sjogren's syndrome. Mice develop inflammatory cell infiltration in the submandibular gland from 12 weeks of age, with increased expression of multiple inflammatory factors, and reduced salivary secretion and increased salivary salt concentration from 16 to 20 weeks of age.
Experimental grouping: 8-week-old female NOD mice were purchased from Shanghai SLE Experimental Animal Corporation and divided into control group, active vitamin d group, PQQ group and PQQ combined with active vitamin D group. There were four different treatment groups, 10 in each group. Saliva flow rates were measured at 12, 24, and 36 weeks of age. The amounts of PQQ and active vitamin D were 1 mg/kg body weight per day and 0.1 μg/kg body weight per day, respectively.
a. Intraperitoneal injection of 1.2% avertin (Chinese name: tribromoethanol), injection dose: 0.2 ml/10 g body weight, formula: (1) […] avertin dissolved in 0.25 ml t-amyl alcohol, shaking for 12 hours to completely dissolve; (2) Add 19.75 ml of 0.9% NaCl solution to obtain 1.2% avertin. Mice were anesthetized gently.
b. Subcutaneous pilocarpine injection in the neck, injection dose: 0.5 mg/kg=0.01 mg/20 g body weight, mother liquor concentration: 0.5 g/10 ml physiological saline=50 mg/ml=0.05×103 mg/ml, solution concentration: the mother liquor was diluted 1000 times, ie, 0.05 mg/ml, to stimulate saliva secretion.
c. Began to collect saliva after 5 minutes, that is, cotton ball with about 8 mg dry weight is made from sterile cotton ball, which is then put into a 1.5 mL EP tube to determine the dry weight. When measuring saliva secretion, the cotton ball is put into the mouse cheek and then taken into the EP tube after 10 min. The wet weight is determined on the electronic balance. Saliva secretion=wet weight of cotton balls−dry weight of cotton balls.

NF-κB = assay: Western Blot detection of NF-κB activation in mouse submandibular gland tissue; format: in vivo; conditions: for phosphorylation level of P65: compared with the control group
Procedure: Detection of NF-κB Activation in Submandibular Gland Tissue of Mouse Submandibular Gland by Western Blot
Take the same amount of total protein for each sample, add 4×SDS loading buffer according to the ratio of protein sample: 4×SDS at 3:1, mix well, boil at 95° C. for 5 min, and prepare 10% separation gel and 5% concentration gel. Perform SDS-PAGE electrophoresis, transfer the membrane, and block the PVDF membrane with 5% solution of skim milk in TBST for 1 hour at room temperature or overnight at 4° C. Dilute antibody with blocking solution, incubate at room temperature for 2 h or 4° C. overnight. Wash membrane, incubate with secondary antibody, and then wash the membrane again. After the equal volume of liquids A and B in the luminescence kit were mixed in a vessel, the mixture was uniformly added dropwise to the PVDF membrane, and the reaction was carried out in the dark for 3-5 minutes.
At the 36th week of treatment, the mouse submandibular glands were taken and Western Blot was used to detect the activation of NF-κB. […] P65 is the protein subunit of NF-κB, and its phosphorylation level directly reflects the activity of NF-κB. In addition, IκB binds to NF-κB to prevent its entry into the nucleus and exerts its activity. Once IκB is phosphorylated, it is degraded and releases NF-κB.

[1] = test system: inflammatory factors in mouse submandibular glands tissue; assay: Realtime quantitative PCR of inflammatory factors in mouse submandibular gland tissue; format: in vivo; conditions: for expression of IL-1β / expression of IL-6 / expression of IL-10 / expression of TNF-α: submandibular glands tissue, 36 weeks, p<0.05
Procedure: Take the mouse submandibular gland tissue and extract RNA using Trizol. Superscript III was used for reverse transcription. Reaction was performed at 42° C. for 30 minutes. Oligo dT and Random Hexamer were used as primers for reverse transcription. Realtime quantitative PCR reaction system: 2×PCR premix 10 μl, Primers 0.8 μl, cDNA 1 μl, add balance of H2O to 20 μl; Reaction conditions: 95° C. 10 min, 95° C. 15 s, 60° C. 60 s, Read plate for 50 cycles; Melting curve Analysis: Temperature 55° C.-95° C., read once per minute. Set up 3 replicates for each sample.

[2] = test system: MDA in submandibular gland tissue of mice; assay: Detection of MDA content in submandibular gland tissue; format: in vivo, mouse; conditions: for content of MDA compared with the control group: 36 weeks, P<0.05; for MDA (Mean ± SD): submandibular gland tissue of mice at 36 weeks of age
Procedure: Detection of MDA content: The submandibular gland tissue in the submandibular glands of mice were harvested and homogenized with icy physiological saline. The protein content was quantified by BCA. Take 1 ml homogenate, add 1 ml 30% trichloroacetic acid and 1 ml 0.67% TBA in turn, bath in boiling water for 30 min and cool to room temperature. After centrifugation at 3000 g for 10 min, the absorbance (A) of the supernatant was measured at 535 nm, and the MDA content was calculated from the standard curve. The result was expressed in nmol/mg tissue.

[3] = test system: SOD in submandibular gland tissue of mice; assay: Detection of SOD content in submandibular gland tissue; format: in vivo, mouse; conditions: for content of SOD compared with the control group: 36 weeks; for SOD (Mean ± SD): submandibular gland tissue of mice at 36 weeks of age
Procedure: Detection of SOD content: The submandibular gland tissue of mice were used to prepare tissue homogenates with icy physiological saline, and the protein content was quantified by BCA method. Refer to the kit operation instructions. Take 0.2 ml of the sample and mix it with 1.3 ml of test solution. Incubate at 37° C. for 40 min. Add 2 ml of chromogenic agent. Placed at room temperature for 10 min. Determine OD at 550 nm. The results are expressed in terms of U/mg protein, which states that the corresponding SOD amount per milligram of protein in a 1 ml reaction solution with a SOD inhibition rate of 50% is an SOD activity unit.

[4] = test system: mouse submandibular gland tissue; assay: Mouse submandibular gland tissue slice detection (hematoxylin-eosin), lymphocytic infiltration; format: in vivo; conditions: NOD mice, 36 weeks age, FIG. 3
Excerpt: 36 weeks age of mouse submandibular gland tissue was isolated, embedded in paraffin and sliced, stained with hematoxylin-eosin and photographed with an inverted microscope.

[5] = chemical stability of o-quinone structure; cited from earlier work
[6] = rat, cited from earlier work
[7] = submandibular glands, 36th week

SMILES	salivary flow compared with the control group (NOD mice; 36th week)	SFR (salivary flow) (NOD mice; 12 W of age)	SFR (salivary flow) (NOD mice; 24 W of age)	SFR (salivary flow) (NOD mice; 36 W of age)	salivary flow compared with the control group (NOD mice; age of 24 weeks)	salivary secretion function of NOD mice (NOD mice)	phosphorylation level of P65 (NF-κB; [7])	expression of IL-1β [1]	expression of IL-6 [1]	expression of IL-10 [1]	expression of TNF-α [1]	content of MDA compared with the control group [2]	MDA (Mean ± SD) [2] [nmol/mg protein]	content of SOD compared with the control group [3]	SOD (Mean ± SD) [3] [NU/mg protein]	further results
O=C(O)c1cc(C(=O)O)c2c(n1)C(=O)C(=O)c1cc(C(=O)O)[nH]c1-2 [PQQ, Pyrroloquinoline quinone]	significantly higher	2.55 (n = 10) μl/g/10 min	3.21 (n = 6) μl/g/10 min	3.75* (n = 5) μl/g/10 min	no significant difference	significantly improve	significantly attenuated	significantly inhibited	significantly reduce; also recorded: significantly inhibited	significantly inhibited	significantly inhibited	significantly lower	4.61 ± 0.76	significantly higher	198.21 ± 21.33	activity of NF-kappaB signaling pathway (NF-κB; submandibular gland tissues of NOD mice, summary statement): significantly reduce; phosphorylation level of IκB (NF-κB; [7]): significantly attenuated; expression of Il-1 ([1]; summary and FIG. 2 legend): significantly reduce; expression of gamma interferon ([1]; summary and FIG. 2 legend): significantly reduce; oxidative stress levels in submandibular gland tissues of NOD mice ([2]; summary statement): significantly inhibit; area of lymphocyte infiltration in submandibular gland [4]: significantly inhibit; also recorded: significantly reduced; redox cycles it can participate in [5]: 20,000; adverse reactions ([6]; 100 mg/kg body weight per day for 14 consecutive days): no adverse reactions were found; LD50 [6]: 1000-2000 mg/kg body weight
C=C1/C(=C\C=C2/CCC[C@]3(C)[C@@H]([C@H](C)CCCC(C)(C)O)CC[C@@H]23)C[C@@H](O)C[C@@H]1O [active vitamin D, 1,25-Dihydroxyvitamin D3, reference compound]	no statistical difference	2.74 (n = 10) μl/g/10 min	2.82 (n = 5) μl/g/10 min	3.22 (n = 4) μl/g/10 min	no significant difference	no effect	no significant change	did not detect the effect	did not detect the effect	did not detect the effect	did not detect the effect	no significant difference	9.48 ± 2.12	no significant difference	102.45 ± 14.22	
